In ChEMBL document CHEMBL1649419, “Design and synthesis of pyrimidinone and pyrimidinedione inhibitors of dipeptidyl peptidase IV” (J Med Chem, 2011):

How the values were obtained:
[1] = Oral bioavailability in dog at 2.5 mg/kg; type: ADME, organism-based, Canis lupus familiaris; conditions: in vivo
[2] = Half life in dog at 2.5 mg/kg, po; type: ADME, organism-based, Canis lupus familiaris; set-up: dose 2.5 mg/kg, route oral; conditions: in vivo
[3] = Half life in rat at 0.8 mg/kg, iv; type: ADME, organism-based; set-up: dose 0.8 mg/kg, route intravenous; conditions: in vivo
[4] = AUC in dog at 2.5 mg/kg, po; type: ADME, organism-based, Canis lupus familiaris; set-up: dose 2.5 mg/kg, route oral; conditions: plasma
[5] = Half life in rat at 11 mg/kg, po; type: ADME, organism-based; set-up: dose 11 mg/kg, route oral; conditions: in vivo
[6] = Volume of distribution at steady state in rat at 0.8 mg/kg, iv and 11 mg/kg, po; type: ADME, organism-based; conditions: in vivo, read-out: Vdss
[7] = AUC in rat at 11 mg/kg, po; type: ADME, organism-based; set-up: dose 11 mg/kg, route oral; conditions: plasma
[8] = Volume of distribution at steady state in dog at 0.8 mg/kg, iv and 2.5 mg/kg, po; type: ADME, organism-based, Canis lupus familiaris; conditions: in vivo, read-out: Vdss
[9] = Oral bioavailability in rat at 11 mg/kg; type: ADME, organism-based; conditions: in vivo
[10] = Half life in dog at 0.8 mg/kg, iv; type: ADME, organism-based, Canis lupus familiaris; set-up: dose 0.8 mg/kg, route intravenous; conditions: in vivo
[11] = Half life in human liver microsomes by LC/MS analysis; type: ADME, Microsome
[12] = Half life in rat liver microsomes by LC/MS analysis; type: ADME, Microsome
[13] = Half life in dog at 1.8 mg/kg, po; type: ADME, organism-based, Canis lupus familiaris; set-up: dose 1.8 mg/kg, route oral; conditions: in vivo
[14] = AUC in dog at 1.8 mg/kg, po; type: ADME, organism-based, Canis lupus familiaris; set-up: dose 1.8 mg/kg, route oral; conditions: plasma
[15] = Volume of distribution at steady state in dog at 0.52 mg/kg, iv and 1.8 mg/kg, po; type: ADME, organism-based, Canis lupus familiaris; conditions: in vivo, read-out: Vdss
[16] = Half life in dog at 0.52 mg/kg, iv; type: ADME, organism-based, Canis lupus familiaris; set-up: dose 0.52 mg/kg, route intravenous; conditions: in vivo
[17] = AUC in rat at 14 mg/kg, po; type: ADME, organism-based; set-up: dose 14 mg/kg, route oral; conditions: plasma
[18] = Half life in rat at 14 mg/kg, po; type: ADME, organism-based; set-up: dose 14 mg/kg, route oral; conditions: in vivo
[19] = Half life in rat at 1.4 mg/kg, iv; type: ADME, organism-based; set-up: dose 1.4 mg/kg, route intravenous; conditions: in vivo
[20] = Oral bioavailability in rat at 14 mg/kg; type: ADME, organism-based; conditions: in vivo
[21] = Volume of distribution at steady state in rat at 1.4 mg/kg, iv and 14 mg/kg, po; type: ADME, organism-based; conditions: in vivo, read-out: Vdss
[22] = Oral bioavailability in dog at 1.8 mg/kg; type: ADME, organism-based, Canis lupus familiaris; conditions: in vivo
Macaca fascicularis [23] = assay: Half life in monkey at 4.6 mg/kg, po; conditions: cynomolgus monkey, in vivo
Macaca fascicularis [24] = assay: in vivo; conditions: cynomolgus monkey, iv, 0.93 mg/kg
[25] = AUC in monkey at 4.6 mg/kg, po; conditions: cynomolgus monkey, plasma
Macaca fascicularis [26] = assay: Oral bioavailability in monkey at 4.6 mg/kg, po; conditions: cynomolgus monkey, in vivo
Macaca fascicularis [27] = assay: Volume of distribution at steady state in monkey at 0.93 mg/kg, iv and 4.6 mg/kg, po; conditions: cynomolgus monkey, in vivo, read-out: Vdss
[28] = Half life in monkey at 7.6 mg/kg, po; type: ADME, organism-based, Macaca mulatta; set-up: dose 7.6 mg/kg, route oral; conditions: rhesus monkey, in vivo
[29] = AUC in monkey at 7.6 mg/kg, po; type: ADME, organism-based, Macaca mulatta; set-up: dose 7.6 mg/kg, route oral; conditions: rhesus monkey, plasma
[30] = Oral bioavailability in monkey at 7.6 mg/kg; type: ADME, organism-based, Macaca mulatta; conditions: rhesus monkey, in vivo
[31] = Half life in monkey at 1.1 mg/kg, iv; type: ADME, organism-based, Macaca mulatta; set-up: dose 1.1 mg/kg, route intravenous; conditions: rhesus monkey, in vivo
[32] = Volume of distribution at steady state in monkey at 1.1 mg/kg, iv and 7.6 mg/kg, po; type: ADME, organism-based, Macaca mulatta; conditions: rhesus monkey, in vivo, read-out: Vdss
[33] = Half life in dog at 0.85 mg/kg, iv; type: ADME, organism-based, Canis lupus familiaris; set-up: dose 0.85 mg/kg, route intravenous; conditions: in vivo
[34] = Volume of distribution at steady state in dog at 0.85 mg/kg, iv and 2.7 mg/kg, po; type: ADME, organism-based, Canis lupus familiaris; conditions: in vivo, read-out: Vdss
[35] = Half life in dog at 2.7 mg/kg, po; type: ADME, organism-based, Canis lupus familiaris; set-up: dose 2.7 mg/kg, route oral; conditions: in vivo
[36] = Oral bioavailability in dog at 2.7 mg/kg; type: ADME, organism-based, Canis lupus familiaris; conditions: in vivo
[37] = AUC in dog at 2.7 mg/kg, po; type: ADME, organism-based, Canis lupus familiaris; set-up: dose 2.7 mg/kg, route oral; conditions: plasma

Row | SMILES | half-life [11] [h] | half-life [12] [h] | further results
1 | Cl.N#Cc1ccccc1Cn1c(N2CCC[C@@H](N)C2)ncc(Cl)c1=O | – | – | bioavailability [1]: 90%; half-life [2]: 4.8 h; half-life [3]: 1.3 h; AUC [4]: 8400 ng·h/mL; half-life [5]: 1.3 h; Vd [6]: 3 L/kg; AUC [7]: 2800 ng·h/mL; Vd [8]: 1.9 L/kg; bioavailability [9]: 65%; half-life [10]: 5.2 h
2 | Cn1c(=O)cc(N2CCC[C@@H](N)C2)n(Cc2cc(F)ccc2C#N)c1=O [TRELAGLIPTIN] | > 3.33 | > 3.33 | –
3 | Cn1c(=O)cc(N2CCC[C@@H](N)C2)n(Cc2ccc(F)cc2Cl)c1=O | > 3.33 | 1.12 | –
4 | N#Cc1ccc(F)cc1Cn1c(N2CCC[C@@H](N)C2)ncc(F)c1=O | > 3.33 | > 3.33 | –
5 | N#Cc1ccccc1Cn1c(N2CCC[C@@H](N)C2)cc(=O)[nH]c1=O | 2.15 | > 3.33 | –
6 | N#Cc1ccccc1Cn1c(N2CCC[C@@H](N)C2)nccc1=O.O=C(O)C(F)(F)F | – | – | half-life [13]: 2.8 h; AUC [14]: 1400 ng·h/mL; Vd [15]: 3 L/kg; half-life [16]: 2.4 h; AUC [17]: 1200 ng·h/mL; half-life [18]: 1 h; half-life [19]: 0.74 h; bioavailability [20]: 54%; Vd [21]: 4.8 L/kg; bioavailability [22]: 78%
7 | Cl.Cn1c(=O)cc(N2CCC[C@@H](N)C2)n(Cc2cc(F)ccc2C#N)c1=O | – | – | half-life (Macaca fascicularis [23]): 6.2 h; clearance (Macaca fascicularis [24]): 10 mL/min/kg; AUC [25]: 8000 ng·h/mL; bioavailability (Macaca fascicularis [26]): 105%; Vd (Macaca fascicularis [27]): 3.3 L/kg
8 | N#Cc1ccccc1Cn1c(N2CCC[C@@H](N)C2)ncc(Br)c1=O | > 3.33 | 1.57 | half-life [28]: 5.4 h; AUC [29]: 8200 ng·h/mL; bioavailability [30]: 112%; half-life [31]: 4.2 h; Vd [32]: 4.2 L/kg
9 | N#Cc1ccccc1Cn1c(N2CCC[C@@H](N)C2)ncc(/C=C/c2ccccc2)c1=O | > 3.33 | 0.567 | –
10 | Cl.N#Cc1ccccc1Cn1c(N2CCC[C@@H](N)C2)ncc(F)c1=O | – | – | half-life [33]: 4.6 h; Vd [34]: 3.5 L/kg; half-life [35]: 4.5 h; bioavailability [36]: 80%; AUC [37]: 3200 ng·h/mL
11 | CCn1c(=O)cc(N2CCC[C@@H](N)C2)n(Cc2ccccc2C#N)c1=O | > 3.33 | 0.533 | –
12 | CCc1cnc(N2CCC[C@@H](N)C2)n(Cc2ccccc2C#N)c1=O | > 3.33 | 0.117 | –
13 | Cn1c(=O)c(Cl)c(N2CCC[C@@H](N)C2)n(Cc2ccccc2C#N)c1=O | 2.73 | 0.933 | –
14 | N#Cc1ccsc1Cn1c(N2CCC[C@@H](N)C2)ncc(Br)c1=O | > 3.33 | 0.25 | –
15 | N#Cc1ccccc1Cn1c(N2CCC[C@@H](N)C2)nc(-c2ccccc2)cc1=O | 1.98 | 0.2 | –
16 | N#Cc1ccccc1Cn1c(N2CCC[C@@H](N)C2)ncc(-c2ccoc2)c1=O | 0.933 | 0.0667 | –
17 | Cn1c(=O)cc(N2CCC[C@@H](N)C2)n(Cc2ccccc2C#N)c1=O [ALOGLIPTIN] | 2.02 | 3.33 | –
18 | N[C@@H]1CCCN(c2cc(=O)[nH]c(=O)n2Cc2ccccc2Br)C1 | > 3.33 | > 1.97 | –
19 | Cc1nc(N2CCC[C@@H](N)C2)n(Cc2ccccc2C#N)c(=O)c1C | > 3.33 | 0.167 | –
20 | Cn1c(=O)cc(N2CCC[C@@H](N)C2)n(Cc2cc(F)ccc2Cl)c1=O | > 3.33 | 0.883 | –
21 | N#Cc1ccccc1Cn1c(N2CCC[C@@H](N)C2)ncc(/C=C/c2cccnc2)c1=O | > 3.33 | 0.45 | –
22 | COc1cnc(N2CCC[C@@H](N)C2)n(Cc2ccccc2C#N)c1=O | > 3.33 | 0.333 | –
